This is an account of results in patent US10407466B2 (Apellis Pharmaceuticals, Inc., priority 2005, dated 2019).

One may read the half-life as the time in which the quantity being followed falls by half.

Read-outs that look alike come from different tables or passages of the source. Marks after values point to notes of the source that are not given here. Bridge positions count the residues as written; N and C are the ends. Square brackets hold non-standard residues; d marks the D form. 2Nal = N[C@@H](Cc1ccc2ccccc2c1)C(=O)O Bounds are passed on as bounds.

Data set [1] concerns choroidal neovascularization (CNV) in C57BL/6 mice. Put plainly: Laser-induced CNV in a mouse model, intravitreal injection. The class given is in vivo. The text has this: C57BL/6 mice (The Jackson Laboratory) were anesthetized with a mixture of ketamine/xylazine (8:1) and the pupils were dilated with a single drop of 1% tropicamide. Krypton red laser photocoagulation (50-μm spot size, 0.05 s duration, 250 mW) will be used to generate laser spots in surrounding the optic nerve by using a hand-held coverslip as a contact lens. Formation of a bubble at the laser spot indicated rupture of Bruch's membrane. Multiple laser spots were generated in each eye.
Different groups of mice were injected with different quantities of this molecule or of mouse albumin (as a control) to determine the effect of dosage on the efficacy and toxicity of VCP. Briefly, after anesthesia and dilation of the pupil, the anterior chamber was entered via the limbus with a 28-gauge needle to decompress the eye. Under an operating microscope, which allows visualization of the retina, a 32-gauge (blunt) needle was passed through a scleral incision, just behind the limbus, into the vitreous cavity.
Seven days after CNV induction incidence of CNV was determined. Briefly, the mice were perfused with a FITC-dextran (Sigma-Aldrich) solution just prior to sacrifice. After the eyes were excised and fixed for 1 h in 10% phosphate-buffered formalin, RPE-choroid-scleral flat mounts were prepared as follows. The cornea and the lens were removed and the neurosensory retina carefully dissected from the eyecup. Five radial cuts were from the edge of the eyecup to the equator; the sclera-choroidretinal pigment epithelium (RPE) complex was flat-mounted, with the sclera facing down, on a glass slide in Aquamount. The flat mounts were stained with an anti-elastin specific monoclonal antibody (Sigma-Aldrich) and then with a CY3-conjugated secondary antibody (Sigma-Aldrich) at a suitable concentration, e.g., at a 1/200 dilution of a 1.0 mg/ml stock solution. Mounts were observed under confocal microscopy (LSM510, Zeiss). The prominent neovascular growth stained green whereas the underlying elastin in the Bruch's membrane stained red within a laser spot. Images were analyzed with the image analysis software AxioVision (Zeiss). The amount of CNV was determined by measuring the total green-fluorescent surface area in each picture. A mean green-fluorescent area was obtained for the various groups and compared using student t-test for comparisons between groups and ANOVA for comparison among multiple groups. […] Deposition of a variety of different complement components is also measured using immunological techniques and/or RT-PCR.
Seven days after CNV induction, incidence of CNV was determined. Just prior to sacrifice, the mice were perfused with a FITC-dextran (Sigma-Aldrich) solution. After the eyes were excised and fixed in 10% phosphate-buffered formalin, RPE-choroid-scleral flat mounts were prepared and stained with an anti-elastin specific monoclonal antibody (Sigma-Aldrich) and then with a CY3-conjugated secondary antibody (Sigma-Aldrich). Mounts were observed under confocal microscopy (LSM510, Zeiss). The prominent neovascular growth stained green whereas the underlying elastin in the Bruch's membrane stained red within a laser spot. […] Images were analyzed with the image analysis software AxioVision (Zeiss). The amount of CNV was determined by measuring the total green-fluorescent surface area in each picture. A mean green-fluorescent area was obtained for the various groups and compared using student t-test for comparisons between groups and ANOVA for comparison among multiple groups. Results are described in Table 2 and in the graph in FIG. 4.

In the next data set the test system is non-primate C3. The settings on record: reported; cited from earlier work.
For data set [2] the following is noted: in vivo; cited from earlier work.
A short description of data set [3]: Half-life in vitro in the vitreous. The class given is in vitro ADME. On the procedure: The inventors' calculations establish, for the first time, the feasibility of substantially inhibiting C3 activation at levels at or above those expected to be present in the vitreous of a subject with wet ARMD by sustained intravitreal delivery of amounts as little as 5 μg/day of a therapeutic agent, which amounts may, according to the invention, be delivered by intravitreal implant technology over prolonged periods of time (as described further below). The inventors' calculations also establish, for the first time, the feasibility of substantially inhibiting C3 activation at levels at or above those expected to be present in the vitreous of a subject with dry ARMD by sustained intravitreal delivery of amounts as low as 2 μg/day of a therapeutic agent, which amounts may be delivered over prolonged periods of time by intravitreal implant technology according to the present invention.

Regarding `CC[C@H](C)[C@H](N)C(=O)N[C@H]1CSSC[C@@H](C(=O)N[C@H](C(N)=O)[C@@H](C)O)NC(=O)[C@H](CCCN=C(N)N)NC(=O)[C@H](Cc2cnc[nH]2)NC(=O)[C@H](Cc2cnc[nH]2)NC(=O)CNC(=O)[C@H](Cc2c[nH]c3ccccc23)NC(=O)[C@H](CC(=O)O)NC(=O)[C@H](CCC(N)=O)NC(=O)[C@H](C(C)C)NC(=O)[C@H](C(C)C)NC1=O` [compstatin], the “Mean Difference (I-J), FldAreaGreen” value in data set [1] (I = Compstatin 30 ug, J = VCP 30 ug, day 7) is on record as −317.4; in data set [1] (I = Mouse Albumin Control, J = test agent 30 ug/eye, day 7), 3286*; in data set [1] (I = No-treatment control, J = test agent 30 ug/eye, green-fluorescent CNV area, day 7, Tamhane), 5195*; in data set [1] (I = test agent 30 ug/eye, J = Mouse Albumin Control, day 7), −3286*; in data set [1] (I = test agent 30 ug/eye, J = No-treatment control, day 7) it was −5195*; in data set [1] (I = test agent 30 ug/eye, J = VCP 10 ug, day 7), −5862*. Further, the “affinity for non-primate C3 compared with human or non-human primate C3” value with non-primate C3 was “lower”. Besides, the half-life in data set [2] was under 0.25 h.

Regarding “Ac-ICV(2-Nal)QDWGAHRCT-CONH2 (Ac-ICV[2Nal]QDWGAHRCT-NH2; disulfide 2-12 (inferred)) [Ac-V4(2-Nal)/H9A]”, the “mean area of CNV relative to either no treatment or administration of albumin” value in data set [1] (30 μg intravitreal, 24 hrs after laser induction, seven days after CNV induction) is on record as “statistically significant reduction”. Further, in data set [1] (30 μg/eye, difference not statistically significant at these sample sizes), the “effectiveness compared with VCP on a μg basis” value is “somewhat more effective than VCP”. In addition, the “development of CNV in an animal model” value in data set [1] (summary of Example 1) is reported as “effective in significantly inhibiting the development of CNV”.

In data set [3], `CC[C@H](C)[C@H](NC(C)=O)C(=O)N[C@H]1CSSC[C@@H](C(=O)N[C@H](C(N)=O)[C@@H](C)O)NC(=O)[C@H](CCCNC(=N)N)NC(=O)[C@H](Cc2cnc[nH]2)NC(=O)[C@H](C)NC(=O)CNC(=O)[C@H](Cc2c[nH]c3ccccc23)NC(=O)[C@H](CC(=O)O)NC(=O)[C@H](CCC(N)=O)NC(=O)[C@H](Cc2cn(C)c3ccccc23)NC(=O)[C@H](C(C)C)NC1=O` [Ac-V4(1-MeW)/H9A] had a half-life of about 6.9 h.
